Where a name gives a salt, the structure may show the parent alone. Where only a bound is given, the exact number is not on record here.

This assay concerns the target T1, sodium-dependent serotonin transporter (Homo sapiens, UniProt P31645).
T1 construct: gene SLC6A4; human recombinant, CHO cell membrane
The assay can be described thus: radioligand displacement of [3H]imipramine on recombinant CHO cell membranes, single dose […]. The format is binding. (In general: In a radioligand displacement assay an active substance lowers the binding of a labelled ligand.)

T1 sequence (P31645 whole entry): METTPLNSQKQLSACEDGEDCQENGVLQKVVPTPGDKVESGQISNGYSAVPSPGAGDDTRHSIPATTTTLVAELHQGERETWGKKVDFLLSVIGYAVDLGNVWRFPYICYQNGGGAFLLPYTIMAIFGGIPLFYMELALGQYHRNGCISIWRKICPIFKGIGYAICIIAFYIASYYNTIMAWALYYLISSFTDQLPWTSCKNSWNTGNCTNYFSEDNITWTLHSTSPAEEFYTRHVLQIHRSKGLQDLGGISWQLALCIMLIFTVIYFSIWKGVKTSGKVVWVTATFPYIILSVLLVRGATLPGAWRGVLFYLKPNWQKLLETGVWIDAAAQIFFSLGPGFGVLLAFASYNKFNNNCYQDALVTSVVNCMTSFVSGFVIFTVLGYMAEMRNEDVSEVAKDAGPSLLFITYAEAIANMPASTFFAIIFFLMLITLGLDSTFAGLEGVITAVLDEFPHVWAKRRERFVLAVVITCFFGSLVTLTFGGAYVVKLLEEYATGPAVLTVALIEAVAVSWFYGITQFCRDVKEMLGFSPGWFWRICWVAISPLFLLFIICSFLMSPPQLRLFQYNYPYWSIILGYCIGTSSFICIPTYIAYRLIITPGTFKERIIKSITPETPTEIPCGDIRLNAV

Consider `CN(C)c1cccc(NC(=O)N2CCN(Cc3ccc(OC4CCNCC4)c(Br)c3)CC2)c1` [KR-37524, 4-(3-bromo-4-(piperidin-4-yloxy)benzyl)-N-(3-(dimethylamino)phenyl)piperazine-1-carboxamide dihydrochloride], for which the inhibition – broadly, the percentage by which the read-out fell short of the control – at 10 µM is more than 50%.

The values are drawn from paper PMC8384862, “Identification of new target proteins of a Urotensin-II receptor antagonist using transcriptome-based drug repositioning approach” (Scientific Reports, 2021).
